Values joined by “and” are separate entries in the source; they are usually repeats but may differ in a detail not shown here. Identical values can stand only once. “Also recorded” adds a separate entry of the source. Like-named read-outs stand apart in the source and are kept apart here.
Tests used:
PLCδ-PH [1] = target: T1, PLCδ-PH (Rattus norvegicus, UniProt P10688); experiment: Spin-column competition assay for 3H-I(145)P3 binding to PLCδ-PH; conditions: for competition for I(145)P3 binding by lipid vesicles: lipid at 5% in DMPC vesicles or pure DMPC, assuming 50% of lipid on the surface
T1 construct: initiator methionine (N); made in house; host or cells: Escherichia coli (pET11a, T7 system)
T1 sequence (P10688 20-136): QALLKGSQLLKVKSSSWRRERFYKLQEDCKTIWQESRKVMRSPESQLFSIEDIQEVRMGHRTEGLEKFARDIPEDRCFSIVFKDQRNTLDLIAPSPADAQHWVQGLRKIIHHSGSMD
Description: A spin-column based competition assay was employed to determine relative affinities of other inositol polyphosphates for PLCδ-PH. […] The sample (40 μl) was then applied to a Biogel P6 gel filtration spin-column. […] Each curve represents the mean of two or more experiments.
The sample was then applied to a pre-spun 1 ml spin-column containing Biogel P6 desalting medium. The spin-column was then centrifuged for 4 minutes at 900 g. Essentially all of the protein was determined to pass through the column under these conditions, and no significant counts were seen to pass through the column in the absence of protein. After spinning, all of the material that passed through the column was added to scintillation fluid for counting. Counts were normalized to those obtained in the absence of competitor, and plotted as fraction of maximal binding. […]
Values for which a precise number is given represent the mean of at least two experiments.

[2] = target: T2, PlecN-PH (N-terminal PH domain of pleckstrin) (Homo sapiens, UniProt P08567); experiment: Gel filtration of 3H-labeled IP3 with PH domain; format: binding; conditions: PH domain 10 μM, IP3 20 μM
T2 construct: residues 1-110 of pleckstrin (PlecN-PH); initiator methionine (N); made in house; host or cells: Escherichia coli (pET11a, T7 system)
T2 sequence (P08567 1-110): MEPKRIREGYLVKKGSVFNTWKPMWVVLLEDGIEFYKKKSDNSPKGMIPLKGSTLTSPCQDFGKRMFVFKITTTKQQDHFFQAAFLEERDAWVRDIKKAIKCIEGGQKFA
Description: (§1) For gel-filtration studies, PH domain at 10 μM was mixed with 20 μM IP3, containing 100 nCi of the appropriate ^3H-labeled isomer. A 200 μl sample was applied to a BioRad BiogelP6 desalting column, and 40 fractions of 300 μl were collected. A Bio-Rad protein assay was performed on […] of each fraction to determine the elution position of the protein, and scintillation counting of the remainder was used to detect the elution positions of IP3. Experiments were performed in either 50 mM MOPS, 100 mM NaCl, pH 6.8, or 100 mM NH4OAc, pH 6.8.

[3] = target: T3, Dyn-PH (PH domain of dynamin) (Homo sapiens, UniProt Q05193); experiment: Gel filtration of 3H-labeled IP3 with PH domain; format: binding; conditions: PH domain 10 μM, IP3 20 μM
T3 construct: The PH domains from PLC-δ1, and dynamin, as well as the N-terminal PH domain of pleckstrin; made in house; host or cells: Escherichia coli (T7 system)
T3 sequence (Q05193 519-625 limits assumed): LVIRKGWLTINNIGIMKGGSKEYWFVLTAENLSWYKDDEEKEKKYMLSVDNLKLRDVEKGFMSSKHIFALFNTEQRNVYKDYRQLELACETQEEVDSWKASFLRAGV
Description: as §1

PLCδ-PH [4] = target: T1, PLCδ-PH; experiment: Gel filtration of 3H-labeled IP3 with PH domain; format: binding; conditions: PH domain 10 μM, IP3 20 μM
Description: as §1

[5] = tested on: any PH domain (PLCδ-PH, Dyn-PH, PlecN-PH); experiment: Centrifugation-based assay of PH domain binding to lipid vesicles; conditions: lipid at 5% in DMPC vesicles
Description: Attempts to detect PH domain association with lipid vesicles were performed exactly as described by Harlan, J. E. et al., Nature 371, 168-170, 1994. In addition to using the BCA protein assay reagent, for which lipid blanks were rather high compared with the values expected for the protein concentrations employed, we also measured OD278 of the supernatants after addition of SDS in order to detect removal of protein upon pelleting vesicles. […] Initially, we performed a centrifugation-based assay, using the conditions described by Harlan, J. E. et al., Nature 371, 168-170, 1994. […] Similarly, we were unable to detect association of any of the PH domains with the same vesicles by using size-exclusion chromatography to separate protein and lipid. Any complexes between the PH domains and these vesicles therefore form with low affinity and/or have fast dissociation kinetics, such that they dissociate in the separation methods employed.

[6] = target: T4, PLCδ-PH (PH domain of rat PLC-δ1) (Rattus norvegicus, UniProt P10688); experiment: Isothermal titration calorimetry of inositol polyphosphate / PIP2 vesicle binding to PLCδ-PH
T4 construct: initiator methionine (N); made in house; host or cells: Escherichia coli (pET11a, T7 system)
T4 sequence (P10688 20-136): T1 sequence (P10688 20-136)
Description: The resulting titration curve was fit using Omega software (Wiseman et al., 1989).
All experiments utilized the OMEGA instrument from MicroCal (Wiseman, T. et al., Anal. Biochem. 179, 131-137, 1989), in the laboratory of Prof. Julian Sturtevant at Yale. Titrations were performed at 25° C. in 50 mM MOPS, 100 mM NaCl, pH 6.8 or 100 mM NH4OAc at pH 6.8. […] For each titration, PH domain solution was dialyzed exhaustively against the buffer used for dilution of highly concentrated stocks of ligand. Heats for dilution of the ligand solutions were determined in separate titrations of ligand into buffer solution present in the cell.
Higher concentrations were employed for weaker binding events. […] Stoichiometry, binding constant (Kβ) and ΔH were all allowed to float in the fitting procedure.
A titration curve such as that to an equation describing a simple-binding reaction (Wiseman, T. et al., Anal. Biochem. 179, 131-137, 1989). From this fit, values for the binding constant, stoichiometry and ΔH for the binding reaction are ascertained. […] Ferris, C. D. et al, Nature, 342, 87-89, 1989.

[7] = ratio of molar excess for 50% competition to that of unlabeled I(145)P3, multiplied by 0.2 μM, read-out: KD (μM) by competition assay
[8] = from concentrations required to reduce 3H-I(145)P3 binding by 50%, read-out: KD from competition assay

O=P(O)(O)O[C@@H]1C(O)[C@@H](OP(=O)(O)O)[C@@H](O)C(O)[C@H]1O (stereo partly drawn) [D-I(24)P2]
Kd (PLCδ-PH [1]; [7]): > 12 µM

O=P(O)(O)O[C@@H]1[C@@H](O)[C@H](O)[C@H](O)[C@H](O)[C@H]1OP(=O)(O)O [D-I(45)P2]
Kd (PLCδ-PH [1]; [8]): > 50 µM
Kd (PLCδ-PH [1]; [7]): > 12 µM

O=P(O)(O)OC1[C@@H](O)[C@H](O)C(O)[C@H](O)[C@H]1O (some centres unmarked) [I-2-P, inositol-2-phosphate]
Kd (PLCδ-PH [1]; [7]): > 60 µM

O=P(O)(O)O[C@H]1[C@H](O)[C@@H](O)[C@H](OP(=O)(O)O)[C@@H](O)[C@H]1O [D-I(14)P2]
Kd (PLCδ-PH [1]; [8]): > 50 µM
Kd (PLCδ-PH [1]; [7]): > 12 µM

O=P(O)(O)OC1C(O)C(O)C(OP(=O)(O)O)C(OP(=O)(O)O)C1O (single isomer, unassigned) [D-I(134)P3]
Kd (PLCδ-PH [1]; [7]): > 12 µM
binding detected by gel filtration [2]: neither Dyn-PH nor PlecN-PH was seen to bind; also recorded: Neither PlecN-PH nor Dyn-PH showed evidence of binding
binding detected by gel filtration [3]: neither Dyn-PH nor PlecN-PH was seen to bind; also recorded: Neither PlecN-PH nor Dyn-PH showed evidence of binding
binding detected by gel filtration (PLCδ-PH [4]): no binding

phosphatidylserine [PS]
binding to vesicles [5]: no binding
competition for I(145)P3 binding by lipid vesicles (PLCδ-PH [1]): no detectable competition; also recorded: did not compete

O=P(O)(OCC(O)CO)OC1C(O)C(O)C(O)C(O)C1O (centres unmarked) [GPI, 1-(a-glycerophosphoryl)-inositol]
Kd (PLCδ-PH [1]; [7]): > 60 µM

O=P(O)(O)OC1C(O)C(O)C(OP(=O)(O)O)C(OP(=O)(O)O)C1O (single isomer, unassigned) [D-I(245)P3]
Kd (PLCδ-PH [1]; [8]): 7.5 µM
Kd (PLCδ-PH [1]; [7]): 4.7 µM

O=P(O)(O)O[C@H]1[C@H](OP(=O)(O)O)[C@@H](OP(=O)(O)O)[C@@H](O)[C@@H](O)[C@@H]1OP(=O)(O)O [D-I(3456)P4]
Kd (PLCδ-PH [1]; [7]): 3.2 µM

O=P(O)(O)O[C@H]1[C@H](O)[C@@H](OP(=O)(O)O)[C@H](OP(=O)(O)O)[C@@H](OP(=O)(O)O)[C@H]1O [D-I(1345)P4]
Kd (PLCδ-PH [1]; [7]): > 2 µM

O=P(O)(O)O[C@@H]1[C@@H](O)[C@@H](O)[C@@H](OP(=O)(O)OC[C@H](O)CO)[C@H](O)[C@H]1OP(=O)(O)O [GPIP2, 1-(a-glycerophosphoryl)-D-inositol-4,5-bisphosphate]
Kd (PLCδ-PH [1]; PIP2: 5% in DMPC vesicles, assuming 50% available, read-out: KD from competition assay): 0.4 µM
Kd (PLCδ-PH [1]; [7]): 0.45 µM
binding weaker than I(145)P3 (PLCδ-PH [1]; relative to I(145)P3 binding to PLCδ-PH): two-fold
Kd ([6]; ITC, read-out: KD (dissociation constant)): 0.4 µM
binding affinity in words ([6]; PIP2 in vesicles): submicromolar affinities
ΔG ([6]; individual titrations, 25° C): -8.86 kcal/M and -8.72 kcal/M
ΔH ([6]; individual titrations, 25° C): -13.5 ± 0.1 kcal/M and -13.2 ± 0.1 kcal/M
ΔS ([6]; individual titrations, 25° C): −15.6 cal · M^−1 · K^−1 and −15.2 cal · M^−1 · K^−1
Stoichiometry n ([6]; individual titrations, 25° C, pH 6.8, quoted for IPn as the ligand, PIP2 in vesicles assuming 50% available): 1.08 ± 0.01 and 1.14 ± 0.01
Kd ([6]; individual titrations, 25° C, pH 6.8, read-out: KD): 0.32 µM and 0.4 µM
Stoichiometry n ([6]; mean of the titrations): 1.11 ± 0.04
ΔG ([6]; mean of the titrations): -8.79 ± 0.10 kcal/M
ΔH ([6]; mean of the titrations): -13.4 ± 0.2 kcal/M
ΔS ([6]; mean of the titrations): −15.4 ± 0.3 cal · M^−1 · K^−1
Kd ([6]; mean of the titrations, read-out: KD): 0.36 ± 0.06 µM

O=P(O)(O)O[C@@H]1[C@@H](O)[C@H](OP(=O)(O)O)[C@@H](OP(=O)(O)O)[C@@H](O)[C@H]1OP(=O)(O)O [D-I(1346)P4]
Kd (PLCδ-PH [1]; [7]): 5.3 µM

O=S(=O)(O)OC1C(OS(=O)(=O)O)C(OS(=O)(=O)O)C(OS(=O)(=O)O)C(OS(=O)(=O)O)C1OS(=O)(=O)O (centres unmarked) [I(SO4)6, inositol hexasulfate]
Kd (PLCδ-PH [1]; [7]): > 60 µM

O=P(O)(O)O[C@@H]1[C@@H](O)[C@H](OP(=O)(O)O)[C@@H](OP(=O)(O)O)[C@H](O)[C@@H]1O [L-I(145)P3]
Kd (PLCδ-PH [1]; [8]): 13 µM
Kd (PLCδ-PH [1]; [7]): 8.1 µM

phosphatidylinositol [PI]
binding to vesicles [5]: no binding
competition for I(145)P3 binding by lipid vesicles (PLCδ-PH [1]): no detectable competition; also recorded: did not compete

O=P(O)(O)O[C@H]1[C@H](OP(=O)(O)O)[C@@H](OP(=O)(O)O)[C@H](O)[C@@H](O)[C@H]1OP(=O)(O)O [D-I(1256)P4]
Kd (PLCδ-PH [1]; [7]): 12 µM

CCCCCCCCCCCCCC(=O)OC[C@H](COP(=O)([O-])OCC[N+](C)(C)C)OC(=O)CCCCCCCCCCCCC [DMPC, dimyristoylphosphatidylcholine]
competition for I(145)P3 binding by lipid vesicles (PLCδ-PH [1]): did not compete
competition for I(145)P3 binding by lipid vesicles (PLCδ-PH [1]; listed as PC): no detectable competition

Source: patent US7314620B2, “Methods for diagnosis and treatment of PH domain signal transduction disorders” (New York University, priority 1995, dated 2008)
